Organism: Rattus norvegicus
Assay: Open TG-GATES - Regimen: Single
Assay type: toxicity, organism-based, Sprague-Dawley
Design: regimen Single, gender Male, age 6 weeks
Settings: in vivo, sc, 0 mg/kg, route subcutaneous injection, dose 0 ug/Kg, dose level Control; for APTT / Bas / Eos / Fbg / Hb / Ht / Lym / MCH / MCHC / MCV / Mono / Neu / PT / Plat / RBC / Ret / WBC: tissue Blood; for KIDNEY_L / KIDNEY_R / KIDNEY_TOTAL: tissue Kidney; for LIVER: tissue Liver; for A/G / ALP / ALT / AST / BUN / CRE / Ca / Cl / DBIL / GLC / IP / K / LDH / Na / PL / RALB / TBIL / TC / TG / TP / gamma-GTP: tissue Plasma

SMILES: CC(=O)O.N=C(N)NCCC[C@@H](NC(=O)[C@@H]1CCCN1C(=O)[C@@H]1CSSCCC(=O)N[C@@H](Cc2ccc(O)cc2)C(=O)N[C@@H](Cc2ccccc2)C(=O)N[C@@H](CCC(N)=O)C(=O)N[C@@H](CC(N)=O)C(=O)N1)C(=O)NCC(N)=O [DESMOPRESSIN ACETATE]
- TERMINAL_BW (3 h): 211.5 g
- APTT (3 h): 16.1 s
- Bas (3 h): 0%
- Eos (3 h): 0.8%
- Fbg (3 h): 234.4 mg/dL
- Hb (3 h): 12.9 g/dL
- Ht (3 h): 39.7%
- Lym (3 h): 77.8%
- MCH (3 h): 21.7 pg
- MCHC (3 h): 32.5%
- MCV (3 h): 66.7 fL
- Mono (3 h): 5.8%
- Neu (3 h): 16%
- PT (3 h): 12.1 s
- Plat (3 h): 119.2 x10_4/uL
- RBC (3 h): 595 x10_4/ul
- Ret (3 h): 11.1%
- WBC (3 h): 80.6 x10_2/uL
- KIDNEY_L (3 h): 0.9 g
- KIDNEY_R (3 h): 1 g
- KIDNEY_TOTAL (3 h): 1.9 g
- LIVER (3 h): 10.2 g
- A/G (3 h): 2.1
- ALP (3 h): 1272 IU/L
- ALT (3 h): 37.8 IU/L
- AST (3 h): 66.8 IU/L
- BUN (3 h): 12.2 mg/dL
- CRE (3 h): 0.3 mg/dL
- Ca (3 h): 11.1 mg/dL
- Cl (3 h): 104.2 meq/L
- DBIL (3 h): 0.01 mg/dL
- GLC (3 h): 188.6 mg/dL
- IP (3 h): 9.2 mg/dL
- K (3 h): 4.8 meq/L
- LDH (3 h): 104 IU/L
- Na (3 h): 138.6 meq/L
- PL (3 h): 149.4 mg/dL
- RALB (3 h): 3.7 g/dL
- TBIL (3 h): 0.042 mg/dL
- TC (3 h): 82.6 mg/dL
- TG (3 h): 81.6 mg/dL
- TP (3 h): 5.5 g/dL
- gamma-GTP (3 h): 0.8 IU/L
- TERMINAL_BW (6 h): 204.5 g
- APTT (6 h): 18 s
- Bas (6 h): 0%
- Eos (6 h): 1.2%
- Fbg (6 h): 239 mg/dL
- Hb (6 h): 12.9 g/dL
- Ht (6 h): 39.7%
- Lym (6 h): 75.6%
- MCH (6 h): 21 pg
- MCHC (6 h): 32.5%
- MCV (6 h): 64.6 fL
- Mono (6 h): 8.6%
- Neu (6 h): 14.4%
- PT (6 h): 12.6 s
- Plat (6 h): 109.8 x10_4/uL
- RBC (6 h): 616 x10_4/ul
- Ret (6 h): 8.8%
- WBC (6 h): 104 x10_2/uL
- KIDNEY_L (6 h): 0.9 g
- KIDNEY_R (6 h): 0.9 g
- KIDNEY_TOTAL (6 h): 1.8 g
- LIVER (6 h): 9.2 g
- A/G (6 h): 2.1
- ALP (6 h): 1325 IU/L
- ALT (6 h): 32 IU/L
- AST (6 h): 62 IU/L
- BUN (6 h): 12 mg/dL
- CRE (6 h): 0.4 mg/dL
- Ca (6 h): 11.2 mg/dL
- Cl (6 h): 105.2 meq/L
- DBIL (6 h): 0.01 mg/dL
- GLC (6 h): 199.2 mg/dL
- IP (6 h): 10 mg/dL
- K (6 h): 5 meq/L
- LDH (6 h): 99.4 IU/L
- Na (6 h): 137.8 meq/L
- PL (6 h): 145.6 mg/dL
- RALB (6 h): 3.7 g/dL
- TBIL (6 h): 0.048 mg/dL
- TC (6 h): 85.2 mg/dL
- TG (6 h): 53.6 mg/dL
- TP (6 h): 5.5 g/dL
- gamma-GTP (6 h): 1 IU/L
- TERMINAL_BW (9 h): 199.2 g
- APTT (9 h): 16.6 s
- Bas (9 h): 0%
- Eos (9 h): 1.2%
- Fbg (9 h): 230.8 mg/dL
- Hb (9 h): 12.8 g/dL
- Ht (9 h): 39.7%
- Lym (9 h): 66.6%
- MCH (9 h): 21.2 pg
- MCHC (9 h): 32.2%
- MCV (9 h): 65.8 fL
- Mono (9 h): 14%
- Neu (9 h): 18.2%
- PT (9 h): 12.7 s
- Plat (9 h): 119.2 x10_4/uL
- RBC (9 h): 603.8 x10_4/ul
- Ret (9 h): 9.5%
- WBC (9 h): 99.4 x10_2/uL
- KIDNEY_L (9 h): 0.9 g
- KIDNEY_R (9 h): 0.9 g
- KIDNEY_TOTAL (9 h): 1.8 g
- LIVER (9 h): 8.5 g
- A/G (9 h): 2.1
- ALP (9 h): 1072.6 IU/L
- ALT (9 h): 31 IU/L
- AST (9 h): 62.2 IU/L
- BUN (9 h): 11.6 mg/dL
- CRE (9 h): 0.3 mg/dL
- Ca (9 h): 10.8 mg/dL
- Cl (9 h): 105.8 meq/L
- DBIL (9 h): 0.012 mg/dL
- GLC (9 h): 189.6 mg/dL
- IP (9 h): 10.8 mg/dL
- K (9 h): 5 meq/L
- LDH (9 h): 88.8 IU/L
- Na (9 h): 138.2 meq/L
- PL (9 h): 140 mg/dL
- RALB (9 h): 3.6 g/dL
- TBIL (9 h): 0.046 mg/dL
- TC (9 h): 82.2 mg/dL
- TG (9 h): 52.4 mg/dL
- TP (9 h): 5.3 g/dL
- gamma-GTP (9 h): 0.6 IU/L
- TERMINAL_BW (24 h): 222.1 g
- APTT (24 h): 16.1 s
- Bas (24 h): 0%
- Eos (24 h): 1%
- Fbg (24 h): 241.7 mg/dL
- Hb (24 h): 12.7 g/dL
- Ht (24 h): 39.6%
- Lym (24 h): 75%
- MCH (24 h): 21.3 pg
- MCHC (24 h): 32.2%
- MCV (24 h): 66 fL
- Mono (24 h): 7.8%
- Neu (24 h): 16.2%
- PT (24 h): 12.1 s
- Plat (24 h): 118 x10_4/uL
- RBC (24 h): 599.6 x10_4/ul
- Ret (24 h): 9.9%
- WBC (24 h): 86.4 x10_2/uL
- KIDNEY_L (24 h): 0.9 g
- KIDNEY_R (24 h): 1 g
- KIDNEY_TOTAL (24 h): 1.9 g
- LIVER (24 h): 10.6 g
- A/G (24 h): 2
- ALP (24 h): 1741.4 IU/L
- ALT (24 h): 35.8 IU/L
- AST (24 h): 65.2 IU/L
- BUN (24 h): 16.4 mg/dL
- CRE (24 h): 0.4 mg/dL
- Ca (24 h): 11.2 mg/dL
- Cl (24 h): 104.6 meq/L
- DBIL (24 h): 0 mg/dL
- GLC (24 h): 192.4 mg/dL
- IP (24 h): 8.4 mg/dL
- K (24 h): 5.3 meq/L
- LDH (24 h): 138.4 IU/L
- Na (24 h): 138.6 meq/L
- PL (24 h): 156.2 mg/dL
- RALB (24 h): 3.7 g/dL
- TBIL (24 h): 0.016 mg/dL
- TC (24 h): 82.2 mg/dL
- TG (24 h): 125.2 mg/dL
- TP (24 h): 5.5 g/dL
- gamma-GTP (24 h): 1.2 IU/L
